Where “and” joins values, the source holds several entries; their conditions need not be identical. Identical values can stand only once.

This data set is described as follows: Plasma protein binding (equilibrium dialysis). The conditions noted are these: human plasma. It is filed as in vitro ADME. The method, then: PPB assays were carried out using the HTD 96-well equilibrium DIALYZERTM (Htdialysis, Gales Ferry, CT, USA). […] Then, the (solution A) was titrated with the (solution B) to pH 7.4 to prepare the dialysis buffer (solution C). The quench solution (solution D) consisted of Alprazolam (100 nM) and Ketoprofen (2 μM) in acetonitrile.
Total 3 μL of testing plasm samples (dissolved in DMSO, 200 μM) was mixed with 597 μL of plasma (the final concentration was 1 μM). The dialysis membranes were pre-soaked with water (60 min), then with 20% ethanol (20 min), and with dialysis buffer (20 min). Both the plasm samples and the dialysis buffer are 100 μL. Then, the dialysis plate was sealed and incubated at 37 °C with 5% CO2 at 100 rpm for 6 h. After 6 hours’ incubation, 50 μL of samples of the dialysis buffer and plasma samples were collected and re-added to a 96-well plate. Then, 50 μL of blank plasma was added to buffer samples, and 50 μL PBS was added to plasma samples. Subsequently, 300 μL quench solution was added to precipitate protein.
Peak Area Ratio buffer chamber means the conc for free fraction;
Peak Area Ratio plasma chamber means the conc for both free and bound fraction;
Peak Area Ratio total sample means the conc for starting sample before incubation.
(In equilibrium dialysis only unbound substance equilibrates across the membrane.)

With `CC(=O)N1CCN(c2ccc(OCC3COC(Cn4ccnc4)(c4ccc(Cl)cc4Cl)O3)cc2)CC1` (stereo not shown) [Ketoconazole], the “Bound (%)” value (1 μM, 6 h dialysis, 37 °C) is 98.53% and 98.53 ± 4.76%. In addition, the “Remaining at 6 h (%)” value (6 h) was 110.91 ± 6.04%. Further, the recovery at 6 h, 1 μM (pH 7.4, 1 μM, 6 h dialysis, 37 °C) came out at 92.6 ± 7.48%. Further, the fraction unbound at 6 h, 1 µM (pH 7.4, 1 μM, 6 h dialysis, 37 °C, read-out: Fu (%), unbound fraction) turned out to be 0.0147 ± 0.0068.

For orientation: fraction unbound means free concentration divided by total concentration.

The values above are taken from publication PMC10891682, “In Vitro Metabolism and In Vivo Pharmacokinetics Profiles of Hydroxy-α-Sanshool” (Toxics, 2024).
